Experimental data reported in PMC10709440, “High-throughput ligand profile characterization in novel cell lines expressing seven heterologous insect olfactory receptors for the detection of volatile plant biomarkers” (Scientific Reports, 2023).
Read-outs that look alike come from different tables or passages of the source.

Experiments:
[1] = target: T1, Drosophila OR47a (Drosophila melanogaster, UniProt P81921); assay: Calcium ion fluorescence (GCaMP6) assay, OR47a stable HEK293 cell line; assay type: cell-based; details: for Average response / OR47a response (VUAA1-normalized) at 1 μM / OR47a response (VUAA1-normalized) at 10 μM / OR47a response (VUAA1-normalized) at 100 μM: OR47a cell line; for Average response: mean of biological replicates; for OR47a response (VUAA1-normalized) at 1 μM: VOC concentration 1 μM; for OR47a response (VUAA1-normalized) at 10 μM: VOC concentration 10 μM; for OR47a response (VUAA1-normalized) at 100 μM: VOC concentration 100 μM
T1 construct: expressed in transfected cells
T1 sequence (P81921 1-385): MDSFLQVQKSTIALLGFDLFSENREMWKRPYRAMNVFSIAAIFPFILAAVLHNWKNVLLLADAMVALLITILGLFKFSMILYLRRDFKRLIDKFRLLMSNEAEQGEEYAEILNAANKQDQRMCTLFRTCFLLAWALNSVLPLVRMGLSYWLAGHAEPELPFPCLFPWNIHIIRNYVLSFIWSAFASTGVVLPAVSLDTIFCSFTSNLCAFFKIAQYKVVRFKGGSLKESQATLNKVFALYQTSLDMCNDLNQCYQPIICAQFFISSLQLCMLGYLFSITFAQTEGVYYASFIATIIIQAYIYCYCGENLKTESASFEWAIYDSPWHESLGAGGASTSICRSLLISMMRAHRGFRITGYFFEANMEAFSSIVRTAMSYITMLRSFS
T1 sequence (Q9VNB5 1-486 partner): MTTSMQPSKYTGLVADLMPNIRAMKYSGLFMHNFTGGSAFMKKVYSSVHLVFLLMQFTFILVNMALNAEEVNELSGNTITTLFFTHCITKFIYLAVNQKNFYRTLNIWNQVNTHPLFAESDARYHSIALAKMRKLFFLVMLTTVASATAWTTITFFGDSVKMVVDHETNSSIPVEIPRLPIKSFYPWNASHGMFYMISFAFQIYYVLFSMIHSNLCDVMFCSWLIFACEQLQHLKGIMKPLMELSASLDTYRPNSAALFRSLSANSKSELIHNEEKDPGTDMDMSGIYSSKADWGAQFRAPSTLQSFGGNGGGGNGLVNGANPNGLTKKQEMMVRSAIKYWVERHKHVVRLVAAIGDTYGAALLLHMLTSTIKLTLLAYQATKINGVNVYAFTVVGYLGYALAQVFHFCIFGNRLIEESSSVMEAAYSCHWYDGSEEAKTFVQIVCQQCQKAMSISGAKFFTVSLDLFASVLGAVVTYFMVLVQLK
Summary of the method: (§1)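 HEK293 lines stably expressing each Drosophila OR with GCaMP6, doxycycline-induced (1 μg/mL) 48 or 72 h. Fluorescence recorded 5 s baseline then 30 s after VOC injection at pH 7.3; ΔF=(FMAX−F0)/F0, normalized to 50 µM VUAA1 response per line, triplicate wells averaged; concentration series 0.01–100 μM.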

[2] = target: T2, Drosophila OR98a (Drosophila melanogaster, UniProt Q9VAZ3); assay: Calcium ion fluorescence (GCaMP6) assay, OR98a stable HEK293 cell line; assay type: cell-based; details: for OR98a response (VUAA1-normalized) at 1 μM / OR98a response (VUAA1-normalized) at 10 μM / OR98a response (VUAA1-normalized) at 100 μM: OR98a cell line; for OR98a response (VUAA1-normalized) at 1 μM: VOC concentration 1 μM; for OR98a response (VUAA1-normalized) at 10 μM: VOC concentration 10 μM; for OR98a response (VUAA1-normalized) at 100 μM: VOC concentration 100 μM
T2 construct: expressed in transfected cells
T2 sequence (Q9VAZ3 1-397): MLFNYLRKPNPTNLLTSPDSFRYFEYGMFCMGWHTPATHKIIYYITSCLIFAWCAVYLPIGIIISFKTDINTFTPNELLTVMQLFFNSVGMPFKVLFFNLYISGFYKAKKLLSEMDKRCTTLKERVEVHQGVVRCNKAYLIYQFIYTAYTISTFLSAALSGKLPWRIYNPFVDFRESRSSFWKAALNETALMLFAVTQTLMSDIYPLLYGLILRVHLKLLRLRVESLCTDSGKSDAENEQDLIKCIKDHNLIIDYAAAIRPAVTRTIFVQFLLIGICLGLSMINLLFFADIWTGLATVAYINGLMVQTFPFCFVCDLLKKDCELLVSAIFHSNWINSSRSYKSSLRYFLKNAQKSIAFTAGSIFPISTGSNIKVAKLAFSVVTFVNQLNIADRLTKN
T2 sequence (Q9VNB5 1-486 partner): T1 sequence (Q9VNB5 1-486 partner)
Summary of the method: as §1

[3] = HEK293, read-out: OR47a response (VUAA1-normalized response)
[4] = concentration 1, normalized fluorescence change, values below 0.05 threshold given as 0
[5] = concentration 10, normalized fluorescence change, values below 0.05 threshold given as 0
[6] = concentration 100, normalized fluorescence change, values below 0.05 threshold given as 0
[7] = HEK293, read-out: Average response
[8] = HEK293, read-out: OR98a response (VUAA1-normalized response)
[9] = ligand concentration 1 (unit not given), threshold 0.05, below shown as 0
[10] = ligand concentration 10 (unit not given), threshold 0.05, below shown as 0
[11] = ligand concentration 100 (unit not given), threshold 0.05, below shown as 0
[12] = HEK293, read-out: OR98a Average response (VUAA1-normalized)
[13] = HEK293, read-out: OR47a Average response (VUAA1-normalized)

Structure (SMILES)	activation at 1 µM [1, 3] [%]	activation at 10 µM [1, 3] [%]	activation at 100 µM [1, 3] [%]	Average response ([1]; odorant cc. 1 µM)	Average response ([1]; odorant cc. 10 µM)	Average response ([1]; odorant cc. 100 µM)	DF norm AVERAGE OR47a [1, 4]	DF norm AVERAGE OR47a [1, 5]	activation at 1 µM [2, 7] [%]	activation at 10 µM [2, 7] [%]	activation at 100 µM [2, 7] [%]	activation at 1 µM [2, 8] [%]	activation at 10 µM [2, 8] [%]	activation at 100 µM [2, 8] [%]	DF norm AVERAGE OR47a [1, 9]	DF norm AVERAGE OR47a [1, 10]	DF norm AVERAGE OR47a [1, 11]	DF norm AVERAGE OR98a [2, 9]	DF norm AVERAGE OR98a [2, 10]	DF norm AVERAGE OR98a [2, 11]	also measured
C=C1CC[C@H]2O[C@]2(C)CC[C@@H]2[C@@H]1CC2(C)C [(-)-caryophyllene oxide]	0	0	0	0.00	0.00	0.00	0	0	0	4	0	0	0	0	–	–	–	–	–	–	DF norm AVERAGE OR47a [1, 6]: 0; DF norm AVERAGE OR98a [2, 4]: 0; DF norm AVERAGE OR98a [2, 5]: 0; DF norm AVERAGE OR98a [2, 6]: 0
CCCCCCCCCC=O [decanal]	0	0	0	0.00	0.00	0.00	–	–	3	0	0	0	0	0	0	0	0	0	0	0	–
CCCCCCCCC=O [nonanal]	–	–	–	0.00	0.00	0.00	–	–	0	0	5.5	–	–	–	0	0	0	0	0	0.05502	OR47a response (VUAA1-normalized) at 1 μM [1]: 0.00; OR47a response (VUAA1-normalized) at 10 μM [1]: 0.00; OR47a response (VUAA1-normalized) at 100 μM [1]: 0.00; OR98a response (VUAA1-normalized) at 1 μM [2]: 0.00; OR98a response (VUAA1-normalized) at 10 μM [2]: 0.00; OR98a response (VUAA1-normalized) at 100 μM [2]: 0.055
CC1=CC[C@@H](C(C)(C)O)CC1 [alpha-terpineol]	0	0	0	0.00	0.00	0.00	–	–	0	1.81	6.45	0	0	6.45	0	0	0	0	0	0.06455	–
CCOC(=O)CC [ethyl propionate]	0	0	0	0.00	0.0134	0.0175	–	–	2	2	1.5	0	0	0	0	0	0	0	0	0	–
O=Cc1ccccc1 [benzaldehyde]	0	0	0	0.03	0.00	0.00	–	–	0	0	4.43	0	0	0	0	0	0	0	0	0	–
CCCCCC(O)CC (stereo not drawn) [3-octanol]	0	0	9	0.00	0.00	0.09	0	0	1.89	3.68	13	0	0	13	–	–	–	–	–	–	DF norm AVERAGE OR47a [1, 6]: 0.08889; activation at 1 µM [2, 12]: 2%; activation at 10 µM [2, 12]: 4%; activation at 100 µM [2, 12]: 13%; DF norm AVERAGE OR98a [2, 4]: 0; DF norm AVERAGE OR98a [2, 5]: 0; DF norm AVERAGE OR98a [2, 6]: 0.1274
Cc1ccc(C)cc1 [p-xylene]	–	–	–	0.00	0.00	0.0271	–	–	0	2.51	4	–	–	–	0	0	0	0	0	0	OR47a response (VUAA1-normalized) at 1 μM [1]: 0.00; OR47a response (VUAA1-normalized) at 10 μM [1]: 0.00; OR47a response (VUAA1-normalized) at 100 μM [1]: 0.00; OR98a response (VUAA1-normalized) at 1 μM [2]: 0.00; OR98a response (VUAA1-normalized) at 10 μM [2]: 0.00; OR98a response (VUAA1-normalized) at 100 μM [2]: 0.00
C=CC(O)CCCCC (stereo not drawn) [1-octen-3-ol]	0	0	14	0.00	0.0268	0.14	0	0	0	1.13	21	0	0	21	–	–	–	–	–	–	activation at 1 µM [1, 13]: 0%; activation at 10 µM [1, 13]: 3%; activation at 100 µM [1, 13]: 14%; DF norm AVERAGE OR47a [1, 6]: 0.1389; activation at 1 µM [2, 12]: 0%; activation at 10 µM [2, 12]: 1%; activation at 100 µM [2, 12]: 21%; DF norm AVERAGE OR98a [2, 4]: 0; DF norm AVERAGE OR98a [2, 5]: 0; DF norm AVERAGE OR98a [2, 6]: 0.2102
CCCCCC(C)O (stereo not drawn) [2-heptanol]	0	6	0	0.00	0.06	0.00	0	0.05999	3.25	3.67	16	0	0	16	–	–	–	–	–	–	DF norm AVERAGE OR47a [1, 6]: 0; activation at 1 µM [2, 12]: 3%; activation at 10 µM [2, 12]: 4%; activation at 100 µM [2, 12]: 16%; DF norm AVERAGE OR98a [2, 4]: 0; DF norm AVERAGE OR98a [2, 5]: 0; DF norm AVERAGE OR98a [2, 6]: 0.1574
